Here are results for two compounds from patent publication US6087375A, “Methods of treating or preventing thromboses” (priority 1999, dated 2000).

Common to all, as to format: binding
In experiment [1] the target is human serum albumin (HSA) (Homo sapiens, UniProt P02768). The experiment in a line: Mass spectrometric analysis of conjugation to HSA (HPLC/ESIMS). As to conditions: HSA 5 μM, 1 hour, room temperature. On the procedure: (§1) All samples were analyzed using a high performance liquid chromatograph (HPLC) coupled in-line to an electrospray ionization (ESI) mass spectrometer (MS) which is termed HPLC/ESIMS. Some samples were also analyzed using a matrix-assisted laser desorption ionization (MALDI) time-of-flight (TOF) mass spectrometer which is termed (MALDI-TOFMS).
Sequence of human serum albumin (HSA) (P02768 25-609): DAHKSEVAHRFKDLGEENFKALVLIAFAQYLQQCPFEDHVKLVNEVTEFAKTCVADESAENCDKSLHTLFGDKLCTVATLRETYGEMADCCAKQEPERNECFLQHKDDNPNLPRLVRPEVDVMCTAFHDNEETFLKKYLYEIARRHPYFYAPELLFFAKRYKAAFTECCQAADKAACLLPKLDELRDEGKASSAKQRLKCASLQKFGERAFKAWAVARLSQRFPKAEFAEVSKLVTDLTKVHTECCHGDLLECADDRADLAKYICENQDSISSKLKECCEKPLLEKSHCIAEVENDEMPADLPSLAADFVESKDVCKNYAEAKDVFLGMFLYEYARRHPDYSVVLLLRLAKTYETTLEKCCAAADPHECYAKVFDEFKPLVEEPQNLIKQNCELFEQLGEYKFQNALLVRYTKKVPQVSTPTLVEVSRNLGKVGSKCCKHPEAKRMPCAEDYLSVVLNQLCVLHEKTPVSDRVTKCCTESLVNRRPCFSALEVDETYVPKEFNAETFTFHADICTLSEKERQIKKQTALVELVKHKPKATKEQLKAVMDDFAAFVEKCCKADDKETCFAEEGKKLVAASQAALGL
(§2) Samples for HPLC/ESIMS were either prepared as duplicate reaction samples or were part of the same reaction samples which were used in the ELISA assays described below. These samples were injected directly only the HPLC/ESIMS without any manipulation other than dilution with water, where the PBS, DMSO, and unreacted derivative molecules are separated from the protein-argatroban derivative molecule conjugate. Samples for MALDI-MS were first HPLC-purified and mixed 1:1 directly on the stainless steel analysis plate with a matrix of 10 mg/ml sinnapinic acid in 50% acetonitrile/50% water. The mixture was then dried with a gentle flow of air to allow for crystallization and inserted into the instrument for laser ionization.
(§3) The HPLC is a Hewlett Packard 1090 Series II liquid chromatogram with a diode array detector. The column used for separation is a Brownlee aquapore OD-300 reversed phase C18 column, 1 mm×10 cm, 300 Å pore size, 7 μm particle diameter. The mass spectrometer to which the HPLC is connected using fused Silica capillary tubing is a Sciex API-300 triple quadrupole mass spectrometer with an ionspray source to allow for atmospheric pressure ionization of a liquid flowing continuously into the instrument. The MALDI-TOFMS is a Perceptive Biosystems Voyager Elite DE instrument run in the linear mode.

In experiment [2] the target is rabbit serum albumin (RSA) (Oryctolagus cuniculus, UniProt P49065). The experiment in a line: Mass spectrometric analysis of conjugation to RSA (HPLC/ESIMS, MALDI-TOFMS). As to conditions: for average argatroban derivative molecules added per RSA molecule / range of argatroban derivative molecules added per RSA molecule: MALDI-MS. On the procedure:
as §1, §2, §3
The conjugate was prepared according to the following protocol. […] Sham samples consist of the RSA incubated for the same length of time at RT in 2% DMSO in PBS. Each of the samples was then concentrated to a final volume of 1.5 mL using Amicon Centricon 30 filtration/concentration devices. The concentrated samples were then desalted on Pierce's 5 ML Kwiksep excellulose plastic desalting columns. The excluded volumes containing RSA or argatroban-C6-RSA were then subjected to BCA microprotein estimation and lyophilization. In addition, these samples were analyzed by LC/MS, sandwich ELISA assays (described above) to measure thrombin binding and immunoblotting.

For experiment [3], the system named is rabbit erythrocyte membrane and cytosolic proteins. Put plainly: Immunoblotting and ELISA of rabbit erythrocyte ghost and cytosol fractions after conjugation. On the procedure:
Material and Methods: Rabbit erythrocytes were conjugated with the Argatroban-C6 NHS ester compound (compound YL-015-35). To do so, rabbit erythrocytes were isolated from fresh, citrated blood. In brief, an aliquot of blood was centrifuged for 5 minutes at 1800 rpm (Sorvall RC-5B, SH-3000 rotor). The buffy coat was pipetted off the top layer of the cell pellet and the remaining erythrocytes were washed four times with PBS, pH 7.4. Before the last wash, an aliquot of cells was removed for counting. The washed erythrocytes were resuspended at a density of 1×10^9 cells/mL. The total volume of cells labeled per sample was 3 mL. […] After the labeling reaction, the cells were centrifuged 4 minutes at 1800 rpm and the supernatant was discarded. The cells were resuspended in 10 ml of 0.5% DMSO/PBS and pelleted. The cells were washed one more time with 10 ml of PBS.
To quench any remaining reactive esters, the cells were then resuspended in 6 mg/mL BSA/PBS (Sigma, A-2934, lot 93HO291) and gently agitated at room temperature for 30 minutes. After quenching, the cells were washed five times with PBS. Cell yields were determined by cell counting.
After conjugation, the cells were hypotonically lysed and the ensuing membrane (ghost) and cytosol fractions were assayed by immunoblotting and ELISA. Specifically, conjugated erythrocyte pellets were chilled on ice for 5 minutes. Cells were then lysed on ice with 12 ml of ice-cold 5 mM phosphate buffer, pH 8.0 (PB) containing 1 mM Pefabloc and 40 μM leupeptin. Lysates were briefly vortexed and then centrifuged for 20 minutes at 4° C. at 15,000 rpm (SS-34, Sorvall RC-5B). The supernatant (hemolysate) was pipetted off the pellet, labeled and stored at 4° C. The pellets (ghosts) were washed four times with 12 ml of cold PBS and centrifuged as above. The protein content of the ghosts and hemolysates was determined by using the Micro BCA kit (Pierce; catalog no. 23231). Cell fractions were stored at -80° C.
Samples were then solubilized in 2×reducing cocktail (5% SDS, 50% glycerol, 0.5 M 2-mercaptoethanol in 0.25 M Tris-HCI, pH 6.8). […]
In general terms: A western blot detects proteins with antibodies after separation by electrophoresis.

The mark [4] stands for this setting: HPLC/ESIMS, RSA 4.5 μM, 100 μM ester, 1 hour, room temperature.
Setting [5] is: concentration study, 10 μM ester, RSA 4.5 μM, HPLC/ESIMS.

Sequence of rabbit serum albumin (RSA) (P49065 25-608): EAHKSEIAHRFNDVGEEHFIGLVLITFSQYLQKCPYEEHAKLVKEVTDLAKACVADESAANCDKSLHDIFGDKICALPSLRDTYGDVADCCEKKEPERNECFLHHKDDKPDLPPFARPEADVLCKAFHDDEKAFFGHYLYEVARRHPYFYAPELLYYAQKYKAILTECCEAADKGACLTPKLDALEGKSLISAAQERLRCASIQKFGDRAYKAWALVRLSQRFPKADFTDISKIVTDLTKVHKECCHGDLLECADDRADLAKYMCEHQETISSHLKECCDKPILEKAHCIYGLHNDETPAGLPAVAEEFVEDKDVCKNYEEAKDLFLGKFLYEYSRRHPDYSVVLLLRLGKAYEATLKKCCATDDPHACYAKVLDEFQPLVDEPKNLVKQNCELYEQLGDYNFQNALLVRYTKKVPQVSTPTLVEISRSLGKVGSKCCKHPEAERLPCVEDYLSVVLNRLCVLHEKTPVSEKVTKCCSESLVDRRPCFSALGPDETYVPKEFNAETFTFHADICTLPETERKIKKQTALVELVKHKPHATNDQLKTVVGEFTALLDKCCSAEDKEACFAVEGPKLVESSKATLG

For the compound `CC1CNc2c(cccc2S(=O)(=O)NC(CCCNC(=N)N)C(=O)N2CCC(C)CC2C(=O)NCCCCCCCCCCCC(=O)ON2C(=O)CCC2=O)C1` (centres unmarked) [compound YL-015-11], the figures for the “covalent addition of argatroban derivative molecules per HSA molecule” value in experiment [1] (0.5 μM ester) and in experiment [1] (100 μM ester) were 0-4 argatroban derivative molecules per HSA molecule and 1-5 argatroban derivative molecules per HSA molecule, respectively. Further, the “covalent addition of argatroban derivative molecules per RSA molecule” value in experiment [2] (HPLC/ESIMS, RSA 4.5 μM, 0.5 μM ester, 1 hour, room temperature) was 0-3 argatroban derivative molecules per RSA molecule; in experiment [2] (setting [4]) it was 1-5 argatroban derivative molecules per RSA molecule.

On to `CC1CNc2c(cccc2S(=O)(=O)NC(CCCN=C(N)N)C(=O)N2CCC(C)CC2C(=O)NCCCCCC(=O)ON2C(=O)CCC2=O)C1` (centres unmarked) [compound YL-015-35], for which, in experiment [1] (100 μM ester), the “covalent addition of argatroban derivative molecules per HSA molecule” value is given as 1-8 argatroban derivative molecules per HSA molecule. Moreover, the “labeled proteins belonging to the glycophorin family” value in experiment [3] (capture ELISA assay) is reported as “a portion of the thrombin inhibitor-labeled proteins belong to the glycophorin family of proteins”. Besides, in experiment [3] (rabbit erythrocytes, cytosol fraction), the “presence of derivatized argatroban molecules on cytosolic proteins” value is listed as “at the limit of detection”. For the same compound, in experiment [3] (rabbit erythrocytes, immunoblotting), the “covalent modification of erythrocyte membrane proteins” value is on record as “numerous erythrocyte membrane proteins were covalently modified”. Moreover, the “covalent addition of argatroban derivative molecules per RSA molecule” value was 1-8 argatroban derivative molecules per RSA molecule in experiment [2] (setting [4]); 1-9 argatroban derivative molecules per RSA molecule in experiment [2] (HPLC/ESIMS, RSA 15 μM, 200 μM ester); 1-9 argatroban derivative molecules per RSA molecule in experiment [2] (HPLC/ESIMS, RSA 30 μM, 300 μM ester). The “average argatroban derivative molecules added per RSA molecule” value in experiment [2] (RSA 15 μM, 200 μM ester) is listed as 5.6 argatroban derivative molecules added per RSA molecule; in experiment [2] (RSA 30 μM, 300 μM ester), 5.4 argatroban derivative molecules added per RSA molecule. In addition, the “range of argatroban derivative molecules added per RSA molecule” value in experiment [2] (RSA 15 μM, 200 μM ester) is reported as 1-10 argatroban derivative molecules added per RSA molecule; in experiment [2] (RSA 30 μM, 300 μM ester), 1-10 argatroban derivative molecules added per RSA molecule. The “argatroban derivative molecules added” value in experiment [2] (concentration study, 1 μM ester, RSA 4.5 μM, HPLC/ESIMS) is on record as “no detectable argatroban derivative molecules”; in experiment [2] (setting [5]), 1 argatroban derivative molecule. The “fraction of the RSA molecules to which 1 argatroban derivative molecule is added” value in experiment [2] (setting [5]) was ~ 50%. Besides, the “major species of RSA molecules” value was “majority of RSA molecules are +1” in experiment [2] (concentration study, 15 μM ester, RSA 4.5 μM); “majority of RSA molecules are +1 and +2” in experiment [2] (concentration study, 20 μM ester, RSA 4.5 μM); “majority of RSA molecules are +1 and +2” in experiment [2] (concentration study, 25 μM ester, RSA 4.5 μM); “no major species” in experiment [2] (concentration study, 100 μM ester, RSA 4.5 μM). For the same compound, the “argatroban derivative molecules added per RSA molecule” value in experiment [2] (concentration study, 15 μM ester, RSA 4.5 μM, HPLC/ESIMS) is 0-3 argatroban derivative molecules per RSA molecule; in experiment [2] (concentration study, 20 μM ester, RSA 4.5 μM, HPLC/ESIMS), 1-3 argatroban derivative molecules per RSA molecule; in experiment [2] (concentration study, 25 μM ester, RSA 4.5 μM, HPLC/ESIMS), 1-4 argatroban derivative molecules per RSA molecule; in experiment [2] (concentration study, 100 μM ester, RSA 4.5 μM, HPLC/ESIMS), 2-10 argatroban derivative molecules per RSA molecule.
